Results reported in PMC11678869, “Functional Role of Odorant-Binding Proteins in Response to Sex Pheromone Component Z8-14:Ac in Grapholita molesta (Busck)” (Insects, 2024).

Experiments:
GmolPBP2 mutant R109A = GmolPBP2 mutant R109A (Grapholita molesta, UniProt A0A059VC28, R134A); assay: Fluorescence competitive binding assay, GmolPBP2 mutant
Method: (§1) The binding affinities of three rGmolPBPs and two rGmolGOBPs for Z8-14:Ac were determined using an F-2700 fluorescence spectrophotometer (Hitachi, Tokyo, Japan). First, we measured the dissociation constants (Kd) of the rGmolPBPs (or rGmolGOBPs) binding to 1−NPN. Each protein was diluted to 2 μM with 20 mM Tris-HCl buffer (pH 7.4); then, 2 mL of the protein solution was transferred to a quartz cuvette and titrated with 1 mM 1−NPN to a final concentration of 1–18 μM. As the doses of 1−NPN were increased, the increasing amplitude of the fluorescence intensity decreased, and finally, the binding of the protein to 1−NPN reached saturation. The Kd values were calculated using the nonlinear regression method and the Scatchard equation. Second, we measured the inhibitory constant (Ki) of Z8-14:Ac’s competitive binding with each rGmolPBP (or rGmolGOBP) from the protein/1−NPN complex. The initial fluorescence intensity values were measured after a 2 min reaction in 2 mL solution of 20 mM Tris-HCl (pH 7.4) containing 2 µM rGmolPBP (or rGmolGOBP) protein and 2 µM 1−NPN. Then, the solution was titrated with aliquots of 1 mM Z8-14:Ac to obtain final concentrations in the range of 1–14 µM, and the fluorescence intensity value of each reaction was recorded. The Ki values were calculated using the following equation: Ki = [IC50]/(1 + [1 − NPN]/Kd) where IC50 is the concentration of Z8-14:Ac when half of the initial fluorescence intensity value of the rGmolPBP (or GmolGOBP)/1−NPN complex is replaced, [1 − NPN] represents the concentration of free 1−NPN, and Kd is the dissociation constant of the rGmolPBP (or GmolGOBP)/1−NPN complex.
(§2) Five amino acids—Phe12, Leu68, Ile94, Arg109, and Ile113—were identified as having lower binding free energies for GmolPBP2 interaction with Z8-14:Ac. To assess their role in binding, these residues were individually mutated to alanine using site-directed mutagenesis. Primers for mutagenesis were designed following the protocols recommended by the Fast Mutagenesis System (TransGen Biotech, Beijing, China) (Table S1). These mutations were introduced into the pET-28a(+)–GmolPBP2 plasmid using a Fast Mutagenesis System kit ([…]) and site-directed mutagenesis primers generating the mutants F12A, L68A, I94A, R109A, and I113A, respectively. Each plasmid was verified by DNA sequencing to confirm the presence of the desired mutation. Expression and purification of the mutated proteins followed the same protocols used for the wild-type GmolPBP2. The binding affinities of the five mutants for Z8-14:Ac were determined via fluorescence competitive binding assays. An increase in Ki values for the mutants relative to the wild-type GmolPBP2 would indicate that the corresponding amino acid residues may be crucial for binding to Z8-14:Ac.

GmolPBP2 mutant L68A = GmolPBP2 mutant L68A (Grapholita molesta, UniProt A0A059VC28, L93A); assay: as above
Chain of GmolPBP2 mutant L68A (A0A059VC28 entry or part of it L93A): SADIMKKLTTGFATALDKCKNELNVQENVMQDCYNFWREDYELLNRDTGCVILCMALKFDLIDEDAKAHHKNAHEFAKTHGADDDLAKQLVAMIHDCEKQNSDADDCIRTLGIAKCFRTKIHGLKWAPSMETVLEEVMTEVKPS
Method: as §1, §2

GmolPBP2 mutant F12A = GmolPBP2 mutant F12A (Grapholita molesta, UniProt A0A059VC28, F37A); assay: as above
Chain of GmolPBP2 mutant F12A (A0A059VC28 entry or part of it F37A): as the sequence (A0A059VC28 entry or part of it L93A) above, with F12A, A68L counted along it
Method: as §1, §2

GmolPBP2 mutant I113A = GmolPBP2 mutant I113A (Grapholita molesta, UniProt A0A059VC28, I138A); assay: as above
Chain of GmolPBP2 mutant I113A (A0A059VC28 entry or part of it I138A): as the sequence (A0A059VC28 entry or part of it L93A) above, with A68L, I113A counted along it
Method: as §1, §2

GmolPBP2 mutant I94A = GmolPBP2 mutant I94A (Grapholita molesta, UniProt A0A059VC28, I119A); assay: as above
Chain of GmolPBP2 mutant I94A (A0A059VC28 entry or part of it I119A): as the sequence (A0A059VC28 entry or part of it L93A) above, with A68L, I94A counted along it
Method: as §1, §2

OFM male antennae = assay: Electroantennogram (EAG) analysis; design: species or system Grapholita molesta
Method: Electroantennogram (EAG) equipment (Syntech, Hilversum, The Netherlands) was used to record the antennal responses of the OFM and PFM adults to Z8-12:Ac, E8-12:Ac, Z8-12:OH, Z8-14:Ac, and Z10-14:Ac. These sex pheromone compounds were diluted with liquid paraffin to prepare a stimulus solution of 100 μg/μL, which was subsequently diluted to 10 and 1 μg/μL. Antenna from 3-day-old OFM and 2- to 4-day-old PFM virgin males were excised at its base, with the distal part of the terminal segment being removed. Then, the treated antenna was attached to electrode holders with SpectraR360 conducting gel. A stimulus controller (model CS-55, Syntegon Technology, Waiblingen, Germany) continuously supplied a humidified air stream at a rate of 500 mL/min. Then, 20 μL of each stimulus solution was adsorbed onto a twice-folded filter paper strip (0.5 cm × 4 cm) placed on the wide section of a l mL pipette tip, which served as an odorant cartridge. Vapor stimuli were delivered by an air compressor into the constant air stream described above, flowing in a copper delivery tube (i.d. 8 mm) with the outlet positioned approximately 1 cm from the antenna. The EAG amplitude tests of the OFM and PFM males’ responses to sex pheromones started with solvent control stimuli (20 μL of liquid paraffin), followed by stimulation with 20, 200, and 2000 μg doses (20 μL of 1.0, 10.0, and 100.0 μg/μL of liquid paraffin solutions, respectively) of stimulus in sequence. The solvent control was performed at the end of the run. To control for variations among antennae, each sample was tested on 10 antennae of different males. The EAG signals and data were analyzed using EAG 2000 software (Syntech, Hilversum, The Netherlands). The corrected EAG amplitude value = absolute EAG amplitude value − (EAGck1 + EAGck2)/2, where EAGck1 and EAGck2 represent the absolute EAG amplitude values of the solvent control before and after measuring each stimulus, respectively. The relative EAG response of the OFM and PFM males to the same doses of sex pheromones were subjected to an analysis of independent sample t-test (p = 0.05) using SPSS version 23.0 (IBM).

Chain of GmolPBP2 mutant R109A (A0A059VC28 entry or part of it R134A): as the sequence (A0A059VC28 entry or part of it L93A) above, with A68L, R109A counted along it

Compound: CCCCC/C=C\CCCCCCCOC(C)=O [Z8-14:Ac, (Z)-8-tetradecenyl acetate]
- IC50 (GmolPBP2 mutant R109A): 1260 ± 29 nM
- Ki (GmolPBP2 mutant R109A): 655 ± 15 nM
- binding affinity relative to wild-type GmolPBP2 (GmolPBP2 mutant R109A; mutant R109A): did not significantly affect the binding affinity
- IC50 (GmolPBP2 mutant L68A): 1130 ± 26 nM
- Ki (GmolPBP2 mutant L68A): 589 ± 7 nM
- binding affinity relative to wild-type GmolPBP2 (GmolPBP2 mutant L68A; mutant L68A): binding affinities comparable to the wild-type
- IC50 (GmolPBP2 mutant F12A): > 14000 nM
- Ki (GmolPBP2 mutant F12A): > 14000 nM
- binding affinity relative to wild-type GmolPBP2 (GmolPBP2 mutant F12A; mutant F12A): lost its affinity
- IC50 (GmolPBP2 mutant I113A): 980 ± 38 nM
- Ki (GmolPBP2 mutant I113A): 520 ± 20 nM
- binding affinity relative to wild-type GmolPBP2 (GmolPBP2 mutant I113A; mutant I113A): binding affinities comparable to the wild-type
- IC50 (GmolPBP2 mutant I94A): 1082 ± 8 nM
- Ki (GmolPBP2 mutant I94A): 564 ± 4 nM
- binding affinity relative to wild-type GmolPBP2 (GmolPBP2 mutant I94A; mutant I94A): binding affinities comparable to the wild-type
- EAG values of OFM males compared with PFM males (OFM male antennae; 20, 200 and 2000 μg): significantly higher than those of the PFM males
- EAG response of OFM males (OFM male antennae; 20, 200 and 2000 μg doses): moderate EAG response
